Assay results: the supplement of paper PMC10307832

Legend:
Experiment in all cases: relative viability (nuclei count vs DMSO), 5 days (fraction); higher = more cells survive
ABC-1 = tested on: ABC-1
Outline: (§1)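 Medians of duplicate plates are given as relative viability. That measure is the nuclei count in treated wells divided by the count in vehicle wells. Counts were taken on 4× images of lung cancer cell lines in 1536-well plates, 5 days after pin-tool dosing the day after seeding with one drug alone or a fixed anchor-drug dose plus five library-drug doses (not always all listed) in √10 steps.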

NCI-H1651 = tested on: NCI-H1651
Outline: as §1

NCI-H3122 = tested on: NCI-H3122
Outline: as §1

ChaGo-K-1 = tested on: ChaGo-K-1
Outline: as §1

HCC-78 = tested on: HCC-78
Outline: as §1

NCI-H460 = tested on: NCI-H460
Outline: as §1

NCI-H1395 = tested on: NCI-H1395
Outline: as §1

NCI-H2087 = tested on: NCI-H2087
Outline: as §1

PC-3 [JPC-3] = tested on: PC-3 [JPC-3]
Outline: as §1

NCI-H2405 = tested on: NCI-H2405
Outline: as §1

NCI-H1755 = tested on: NCI-H1755
Outline: as §1

HCC-366 = tested on: HCC-366
Outline: as §1

NCI-H1734 = tested on: NCI-H1734
Outline: as §1

LOU-NH91 = tested on: LOU-NH91
Outline: as §1

NCI-H1944 = tested on: NCI-H1944
Outline: as §1

NCI-H2170 = tested on: NCI-H2170
Outline: as §1

NCI-H1793 = tested on: NCI-H1793
Outline: as §1

LC-2-ad = tested on: LC-2-ad
Outline: as §1

LU99A = tested on: LU99A
Outline: as §1

CAL-12T = tested on: CAL-12T
Outline: as §1

RERF-LC-KJ = tested on: RERF-LC-KJ
Outline: as §1

NCI-H2228 = tested on: NCI-H2228
Outline: as §1

UMC-11 = tested on: UMC-11
Outline: as §1

In the case of NC(=O)Nc1cc(-c2cccc(F)c2)sc1C(=O)N[C@H]1CCCNC1 [AZD7762] + CC(=O)c1c(C)c2cnc(Nc3ccc(N4CCNCC4)cn3)nc2n(C2CCCC2)c1=O [Palbociclib] (partner 0.5 µM), the relative viability (ABC-1; first compound 0.01 µM) is reported as 0.884, the relative viability (ABC-1; first compound 0.03162 µM) is reported as 0.968 and the relative viability (ABC-1; first compound 0.1 µM) is reported as 0.526. For the same molecule, the relative viability (ABC-1; first compound 0.3162 µM) was 0.948, the relative viability (ABC-1; first compound 1 µM) was 0.74 and the relative viability (NCI-H1651; first compound 0.01 µM) was 0.574. It also gave a relative viability (NCI-H1651; first compound 0.03162 µM) of 0.525, a relative viability (NCI-H1651; first compound 0.1 µM) of 0.556 and a relative viability (NCI-H1651; first compound 0.3162 µM) of 0.558. It also gave a relative viability (NCI-H1651; first compound 1 µM) of 0.501, a relative viability (NCI-H3122; first compound 0.01 µM) of 0.167 and a relative viability (NCI-H3122; first compound 0.03162 µM) of 0.206. The relative viability (NCI-H3122; first compound 0.1 µM) was 0.191, the relative viability (NCI-H3122; first compound 0.3162 µM) was 0.199 and the relative viability (NCI-H3122; first compound 1 µM) was 0.191. It also gave a relative viability (ChaGo-K-1; first compound 0.01 µM) of 1.01, a relative viability (ChaGo-K-1; first compound 0.03162 µM) of 0.953 and a relative viability (ChaGo-K-1; first compound 0.1 µM) of 0.958. For the same molecule, the relative viability (ChaGo-K-1; first compound 0.3162 µM) was 0.932, the relative viability (ChaGo-K-1; first compound 1 µM) was 1.03 and the relative viability (HCC-78; first compound 0.01 µM) was 0.444. For the same molecule, the relative viability (HCC-78; first compound 0.03162 µM) was 0.461, the relative viability (HCC-78; first compound 0.1 µM) was 0.444 and the relative viability (HCC-78; first compound 0.3162 µM) was 0.518. For the same molecule, the relative viability (HCC-78; first compound 1 µM) was 0.454, the relative viability (NCI-H460; first compound 0.01 µM) was 0.254 and the relative viability (NCI-H460; first compound 0.03162 µM) was 0.117. For the same molecule, the relative viability (NCI-H460; first compound 0.1 µM) was 0.0606, the relative viability (NCI-H460; first compound 0.3162 µM) was 0.0344 and the relative viability (NCI-H460; first compound 1 µM) was 0.0224. It also gave a relative viability (NCI-H1395; first compound 0.01 µM) of 0.642, a relative viability (NCI-H1395; first compound 0.03162 µM) of 0.68 and a relative viability (NCI-H1395; first compound 0.1 µM) of 0.56. It also gave a relative viability (NCI-H1395; first compound 0.3162 µM) of 0.456, a relative viability (NCI-H1395; first compound 1 µM) of 0.363 and a relative viability (NCI-H2087; first compound 0.01 µM) of 0.213. The relative viability (NCI-H2087; first compound 0.03162 µM) was 0.298, the relative viability (NCI-H2087; first compound 0.1 µM) was 0.243 and the relative viability (NCI-H2087; first compound 0.3162 µM) was 0.274. The relative viability (NCI-H2087; first compound 1 µM) was 0.317, the relative viability (PC-3 [JPC-3]; first compound 0.01 µM) was 0.558 and the relative viability (PC-3 [JPC-3]; first compound 0.03162 µM) was 0.541. For the same molecule, the relative viability (PC-3 [JPC-3]; first compound 0.1 µM) was 0.537, the relative viability (PC-3 [JPC-3]; first compound 0.3162 µM) was 0.538 and the relative viability (PC-3 [JPC-3]; first compound 1 µM) was 0.504. It also gave a relative viability (NCI-H2405; first compound 0.01 µM) of 0.516, a relative viability (NCI-H2405; first compound 0.03162 µM) of 0.538 and a relative viability (NCI-H2405; first compound 0.1 µM) of 0.465. It also gave a relative viability (NCI-H2405; first compound 0.3162 µM) of 0.507, a relative viability (NCI-H2405; first compound 1 µM) of 0.302 and a relative viability (NCI-H1755; first compound 0.01 µM) of 0.483. The relative viability (NCI-H1755; first compound 0.03162 µM) was 0.488, the relative viability (NCI-H1755; first compound 0.1 µM) was 0.466 and the relative viability (NCI-H1755; first compound 0.3162 µM) was 0.495. The relative viability (NCI-H1755; first compound 1 µM) was 0.442, the relative viability (HCC-366; first compound 0.01 µM) was 0.478 and the relative viability (HCC-366; first compound 0.03162 µM) was 0.387. The relative viability (HCC-366; first compound 0.1 µM) was 0.407, the relative viability (HCC-366; first compound 0.3162 µM) was 0.28 and the relative viability (HCC-366; first compound 1 µM) was 0.106. The relative viability (NCI-H1734; first compound 0.01 µM) was 0.38, the relative viability (NCI-H1734; first compound 0.03162 µM) was 0.364 and the relative viability (NCI-H1734; first compound 0.1 µM) was 0.395. It also gave a relative viability (NCI-H1734; first compound 0.3162 µM) of 0.356, a relative viability (NCI-H1734; first compound 1 µM) of 0.317 and a relative viability (LOU-NH91; first compound 0.01 µM) of 0.528. The relative viability (LOU-NH91; first compound 0.03162 µM) was 0.525, the relative viability (LOU-NH91; first compound 0.1 µM) was 0.542 and the relative viability (LOU-NH91; first compound 0.3162 µM) was 0.609. It also gave a relative viability (LOU-NH91; first compound 1 µM) of 0.503, a relative viability (NCI-H1944; first compound 0.01 µM) of 0.383 and a relative viability (NCI-H1944; first compound 0.03162 µM) of 0.382. The relative viability (NCI-H1944; first compound 0.1 µM) was 0.409, the relative viability (NCI-H1944; first compound 0.3162 µM) was 0.402 and the relative viability (NCI-H1944; first compound 1 µM) was 0.359. For the same molecule, the relative viability (NCI-H2170; first compound 0.01 µM) was 0.437, the relative viability (NCI-H2170; first compound 0.03162 µM) was 0.397 and the relative viability (NCI-H2170; first compound 0.1 µM) was 0.425. The relative viability (NCI-H2170; first compound 0.3162 µM) was 0.424, the relative viability (NCI-H2170; first compound 1 µM) was 0.415 and the relative viability (NCI-H1793; first compound 0.01 µM) was 0.34. It also gave a relative viability (NCI-H1793; first compound 0.03162 µM) of 0.343, a relative viability (NCI-H1793; first compound 0.1 µM) of 0.373 and a relative viability (NCI-H1793; first compound 0.3162 µM) of 0.347. It also gave a relative viability (NCI-H1793; first compound 1 µM) of 0.225, a relative viability (LC-2-ad; first compound 0.01 µM) of 0.499 and a relative viability (LC-2-ad; first compound 0.03162 µM) of 0.521. It also gave a relative viability (LC-2-ad; first compound 0.1 µM) of 0.463, a relative viability (LC-2-ad; first compound 0.3162 µM) of 0.365 and a relative viability (LC-2-ad; first compound 1 µM) of 0.367. For the same molecule, the relative viability (LU99A; first compound 0.01 µM) was 0.469, the relative viability (LU99A; first compound 0.03162 µM) was 0.427 and the relative viability (LU99A; first compound 0.1 µM) was 0.438. The relative viability (LU99A; first compound 0.3162 µM) was 0.408, the relative viability (LU99A; first compound 1 µM) was 0.354 and the relative viability (CAL-12T; first compound 0.01 µM) was 0.519. The relative viability (CAL-12T; first compound 0.03162 µM) was 0.502, the relative viability (CAL-12T; first compound 0.1 µM) was 0.412 and the relative viability (CAL-12T; first compound 0.3162 µM) was 0.194. The relative viability (CAL-12T; first compound 1 µM) was 0.129, the relative viability (RERF-LC-KJ; first compound 0.01 µM) was 1.09 and the relative viability (RERF-LC-KJ; first compound 0.03162 µM) was 1.07. It also gave a relative viability (RERF-LC-KJ; first compound 0.1 µM) of 1.06, a relative viability (RERF-LC-KJ; first compound 0.3162 µM) of 1.01 and a relative viability (RERF-LC-KJ; first compound 1 µM) of 0.965. The relative viability (NCI-H2228; first compound 0.01 µM) was 0.787, the relative viability (NCI-H2228; first compound 0.03162 µM) was 0.937 and the relative viability (NCI-H2228; first compound 0.1 µM) was 0.896. The relative viability (NCI-H2228; first compound 0.3162 µM) was 0.283, the relative viability (NCI-H2228; first compound 1 µM) was 0.156 and the relative viability (UMC-11; first compound 0.01 µM) was 0.373. It also gave a relative viability (UMC-11; first compound 0.03162 µM) of 0.302, a relative viability (UMC-11; first compound 0.1 µM) of 0.34 and a relative viability (UMC-11; first compound 0.3162 µM) of 0.301. For the same molecule, the relative viability (UMC-11; first compound 1 µM) was 0.231.
